Laboratory results: patent US4218456A, “1-(4-Fluorophenyl)-4-(1,2,3,6-tetrahydro-4-phenoxy-1-pyridinyl)-butanones” (Warner-Lambert Company, priority 1978, dated 1980)

Tested on: dopamine receptor binding sites
Test: 3H-Haloperidol Receptor Binding Assay (HRBA)
Details: at 10^-8 mol/L concentration in vitro
Excerpt: As with other known antipsychotics, the compounds of formula I readily displace ^3 H-haloperidol from dopamine receptor binding sites in the ^3 H-Haloperidol Receptor Binding Assay (HRBA). […] The HRBA screen is described by I. Creese, D. R. Burt and S. H. Snyder, Science, 192, 481 (1976) and P. Seeman, T. Lee, M. Chan-Wong and K. Wong, Nature, 261, 717 (1976).

SMILES: O=C(CCCN1CC=C(Oc2ccc(F)cc2)CC1)c1ccc(F)cc1 [Example 9, 4-[4-(4-Fluorophenoxy)-1,2,3,6-tetrahydro-1-pyridinyl]-1-(4-fluorophenyl)-1-butanone(Z)-2-Butenedioate]
- inhibition of 3H-haloperidol: 87%
